Results on 18 molecules are retold here after US20240279220A1, “INDOLE COMPOUNDS AND METHODS OF USE” (Genzyme Corporation, priority 2021, published 2024).

One test concerns NBD1/3D. Kind of test: Aggregation analysis using differential static light scattering (DSLS), NBD1 thermal stability. The test is classed as binding, Human. The settings on record: ΔTagg versus DMSO control; compound at 100 μM. Summed up:
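Purified NBD1 at 0.2 mg/ml in S200 buffer (pH 7.6, 2 mM ATP, 5 mM MgCl2, 1% glycerol) was heated with compound at 1 °C/min to 70 °C. Tagg taken from the light-scattering curve inflection point; ΔTagg = compound Tagg minus mean DMSO control Tagg.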

In another test the target is T1, CFTR (Homo sapiens, UniProt P13569, DEL508-508).
T1 construct: Primary human bronchial epithelial cells from a ΔF508 homozygous CF donor; host or cells: primary human bronchial epithelial cells (CF-HBE), ΔF508 homozygous donor
T1 sequence (P13569 with tags, fused parts or gaps DEL508-508): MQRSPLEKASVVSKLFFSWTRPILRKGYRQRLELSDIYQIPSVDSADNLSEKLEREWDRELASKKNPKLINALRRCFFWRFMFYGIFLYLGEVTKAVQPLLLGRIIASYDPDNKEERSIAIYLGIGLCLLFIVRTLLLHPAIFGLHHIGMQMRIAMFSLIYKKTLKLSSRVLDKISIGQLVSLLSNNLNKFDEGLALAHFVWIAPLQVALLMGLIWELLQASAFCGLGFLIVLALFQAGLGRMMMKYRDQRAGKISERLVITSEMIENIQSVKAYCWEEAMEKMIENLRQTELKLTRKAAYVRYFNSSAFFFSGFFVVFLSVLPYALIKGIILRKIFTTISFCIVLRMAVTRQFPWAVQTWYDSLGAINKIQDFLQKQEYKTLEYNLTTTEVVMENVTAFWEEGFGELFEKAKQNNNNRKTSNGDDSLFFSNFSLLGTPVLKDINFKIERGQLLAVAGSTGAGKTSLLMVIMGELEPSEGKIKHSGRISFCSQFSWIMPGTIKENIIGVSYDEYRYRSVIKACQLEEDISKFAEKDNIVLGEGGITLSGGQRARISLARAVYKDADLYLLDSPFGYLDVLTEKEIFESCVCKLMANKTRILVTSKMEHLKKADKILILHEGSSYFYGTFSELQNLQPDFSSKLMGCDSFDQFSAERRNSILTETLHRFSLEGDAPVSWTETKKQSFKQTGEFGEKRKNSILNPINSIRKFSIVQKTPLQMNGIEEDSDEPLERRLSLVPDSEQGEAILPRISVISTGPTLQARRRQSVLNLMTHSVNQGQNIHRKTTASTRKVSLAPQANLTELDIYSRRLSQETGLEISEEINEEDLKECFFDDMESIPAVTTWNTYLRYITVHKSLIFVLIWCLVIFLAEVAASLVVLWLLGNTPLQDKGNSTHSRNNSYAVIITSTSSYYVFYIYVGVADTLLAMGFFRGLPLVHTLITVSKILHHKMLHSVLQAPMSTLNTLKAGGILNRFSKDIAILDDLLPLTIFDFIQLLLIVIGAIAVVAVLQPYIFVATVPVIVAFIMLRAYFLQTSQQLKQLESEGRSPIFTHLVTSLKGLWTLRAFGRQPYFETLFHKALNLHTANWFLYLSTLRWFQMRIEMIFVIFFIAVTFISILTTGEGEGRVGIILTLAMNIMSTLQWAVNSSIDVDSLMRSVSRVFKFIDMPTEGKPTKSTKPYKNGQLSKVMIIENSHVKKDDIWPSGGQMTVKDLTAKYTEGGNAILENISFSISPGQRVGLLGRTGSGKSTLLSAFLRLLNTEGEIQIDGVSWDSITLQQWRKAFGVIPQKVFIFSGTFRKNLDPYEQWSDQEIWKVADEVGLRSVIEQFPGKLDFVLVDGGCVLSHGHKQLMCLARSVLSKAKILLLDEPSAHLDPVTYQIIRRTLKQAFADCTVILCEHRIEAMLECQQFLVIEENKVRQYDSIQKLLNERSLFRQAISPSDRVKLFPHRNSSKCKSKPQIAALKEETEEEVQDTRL
Kind of test: TECC24 recording of CFTR-mediated transepithelial chloride transport in ΔF508 homozygous CF-HBE cells. The test is classed as cell-based. As to conditions: 10 μM test agent, 48 hours incubation, AUC of forskolin-stimulated IEQ divided by vehicle AUC, primary CF-HBE cells. As for the experimental part: The effects of a test agent on CFTR-mediated transepithelial chloride transport was measured using TECC24 recording analysis. Test agents were solubilized in DMSO. Solubilized test agents were mixed with incubation medium containing DMEM/F12, Ultroser G (2%; Crescent Chemical, catalog #67042), Hyclone Fetal Clone II (2%; GE Healthcare, catalog #SH30066.02), bovine brain extract (0.25%; Lonza, catalog #CC-4098), insulin (2.5 μg/mL), IL-13 (10 ng/mL), hydrocortisone (20 nM), transferrin (2.5 μg/mL), triiodothyronine (500 nM), ethanolamine (250 nM), epinephrine (1.5 μM), phosphoethanolamine (250 nM), and retinoic acid (10 nM). Primary human bronchial epithelial cells from a ΔF508 homozygous CF donor (CF-HBE cells; from University of North Carolina Cystic Fibrosis Tissue Procurement Center), grown on Transwell HTS 24-well cell culture inserts (Costar, catalog #3378), were exposed to test agents or controls dissolved in incubation medium. The CF-HBE cells were cultured at 36.5° C. for 48 hours before TECC24 recordings were performed in the presence or absence of test agent, a positive control or vehicle (DMSO).
Following incubation, the transwell cell culture inserts containing the test agent or control-treated CF-HBE cells were loaded onto a TECC24 apparatus (TECC v7 or MTECC v2; EP Design) to record the transepithelial voltage (VT) and resistance (TEER) using 4 AgCl electrodes per well configured in current-clamp mode. The apical and basolateral bath solutions both contained (in mM) 140 NaCl, 5 KCl, 2 CaCl2, 1 MgCl2, 10 Hepes, and 10 glucose (adjusted to pH 7.4 with NaOH). To inhibit basal Na+ absorption, the ENaC inhibitor benzamil (10 μM) was added to the bath. Then, the adenylate cyclase activator, forskolin (10 μM), was added to the bath to activate CFTR. The forskolin-stimulated Cl— transport was halted by addition of CFTR inhibitor-172 (20 μM) to the bath at the end of the experiment to confirm specificity. VT and TEER recordings were digitally acquired at routine intervals using TECC or MTECC software (EP Design). VT and TEER were transformed into equivalent transpeithelial Cl— current (IEQ), and the Area Under the Curve (AUC) of the IEQ timecourse between forskolin and CFTR inhibitor-172 addition is generated using Excel (Microsoft). Efficacy is expressed as the ratio of the test agent AUC divided by vehicle AUC. EC50s based on AUC are generated using the non-linear regression log(agonist) vs. response function in Prism software (Graphpad) with HillSlope fixed=1.
If a test agent increased the AUC of the forskolin-stimulated IEQ relative to vehicle in CF-HBE cells, and this increase was inhibited by CFTR inhibitor-172, then the test agent was considered a CFTR corrector.

Regarding `O=C(O)CCc1cccc(Cc2cnc(-c3cc(Oc4c(F)c(F)c5[nH]ccc5c4F)ccc3F)[nH]2)c1` [Example 123, 3-(3-((2-(2-fluoro-5-((4,6,7-trifluoro-1H-indol-5-yl)oxy)phenyl)-1H-imidazol-5-yl)methyl)phenyl)propanoic acid], the “DSLS NBD1/3D Human Stability delta-T (° C.) @ 100 (μM)” value (shortened to “DSLS NBD1/3D Human Stability delta-T”) with NBD1/3D is given as “B (B: 5-10° C.)”. The “TECC24 @ 10 μM over DMSO (AUC fold over DMSO)” value at CFTR is given as “B (“B” refers to AUC @10 uM between 4-12)”. On to `CP(C)(=O)c1c(Oc2ccc(F)c(-c3ncc(C4(c5cc(F)cc(CCC(=O)O)c5)CC(F)(F)C4)[nH]3)c2)c(F)cc2[nH]ccc12` [Example 80, 3-(3-(1-(2-(5-((4-(dimethylphosphoryl)-6-fluoro-1H-indol-5-yl)oxy)-2-fluorophenyl)-1H-imidazol-5-yl)-3,3-difluorocyclobutyl)-5-fluorophenyl)propanoic acid], for which, in the test on NBD1/3D, the “DSLS NBD1/3D Human Stability delta-T” value is “A (A: T ≥ 10° C.)”. For the same molecule, at CFTR, the “TECC24 @ 10 μM over DMSO (AUC fold over DMSO)” value is given as “C (“C” refers to AUC @ 10 uM <= 4)”. The corresponding values for `O=C(O)CCc1cccc(C2(c3cnc(-c4cc(Oc5c(F)c(F)c6[nH]ccc6c5F)ccc4F)[nH]3)CCOCC2)c1` [Example 167, 3-(3-(4-(2-(2-fluoro-5-((4,6,7-trifluoro-1H-indol-5-yl)oxy)phenyl)-1H-imidazol-4-yl)tetrahydro-2H-pyran-4-yl)phenyl)propanoic acid] are “A (A: T ≥ 10° C.)” and “C (“C” refers to AUC @ 10 uM <= 4)”. Consider `COCC(COC)(c1cccc(CCC(=O)O)c1)c1cnc(-c2cc(Oc3c(F)cc4[nH]ccc4c3F)ccc2F)[nH]1` [Example 171, 3-(3-(2-(2-(5-((4,6-Difluoro-1H-indol-5-yl)oxy)-2-fluorophenyl)-1H-imidazol-5-yl)-1,3-dimethoxypropan-2-yl)phenyl)propanoic acid], for which the “DSLS NBD1/3D Human Stability delta-T” value in the test with NBD1/3D is “A (A: T ≥ 10° C.)”. For the same molecule, the “TECC24 @ 10 μM over DMSO (AUC fold over DMSO)” value on CFTR is “C (“C” refers to AUC @ 10 uM <= 4)”. Turning to `CS(=O)(=O)Cc1c(Oc2ccc(F)c(-c3ncc(Cc4cccc(CCC(=O)O)c4F)[nH]3)c2)c(F)cc2[nH]ccc12` [Example 279, 3-(2-Fluoro-3-((2-(2-fluoro-5-((6-fluoro-4-((methylsulfonyl)methyl)-1H-indol-5-yl)oxy)phenyl)-1H-imidazol-5-yl)methyl)phenyl)propanoic acid], the “DSLS NBD1/3D Human Stability delta-T” value in the test with NBD1/3D was “A (A: T ≥ 10° C.)”. Besides, the “TECC24 @ 10 μM over DMSO (AUC fold over DMSO)” value on CFTR was “A (“A” refers to AUC @10 uM >= 12)”. Regarding `CC(Cc1cccc(C(C)c2cnc(-c3cc(Oc4c(F)cc5[nH]ccc5c4F)ccc3F)[nH]2)c1F)C(=O)O` (single isomer, unassigned) [Example 137D, 3-(3-(1-(2-(5-((4,6-difluoro-1H-indol-5-yl)oxy)-2-fluorophenyl)-1H-imidazol-5-yl)ethyl)-2-fluorophenyl)-2-methylpropanoic acid], in the test with NBD1/3D, the “DSLS NBD1/3D Human Stability delta-T” value is “A (A: T ≥ 10° C.)”. The “TECC24 @ 10 μM over DMSO (AUC fold over DMSO)” value on CFTR is reported as “A (“A” refers to AUC @10 uM >= 12)”. In the case of `CC1CC(c2cccc(CCC(=O)O)c2)(c2cnc(-c3cc(Oc4c(F)cc5[nH]ccc5c4F)ccc3F)[nH]2)CC(C)O1` (stereo not drawn) [Example 142, 3-(3-(4-(2-(5-((4,6-Difluoro-1H-indol-5-yl)oxy)-2-fluorophenyl)-1H-imidazol-5-yl)-2,6-dimethyltetrahydro-2H-pyran-4-yl)phenyl)propanoic acid], the “DSLS NBD1/3D Human Stability delta-T” value in the test with NBD1/3D is recorded as “A (A: T ≥ 10° C.)”. Regarding `Cc1c(Oc2cccc(-c3ccn(Cc4cccc(CCC(=O)O)c4)n3)c2)ccc2[nH]ccc12` [Example 1, 3-(3-((3-(3-((4-Methyl-1H-indol-5-yl)oxy)phenyl)-1H-pyrazol-1-yl)methyl)phenyl)propanoic acid], the “DSLS NBD1/3D Human Stability delta-T” value with NBD1/3D was “B (B: 5-10° C.)”.

Take `CC(=O)NCc1c(Oc2cccc(-c3ncc(C(O)c4cccc(CCC(=O)O)c4)[nH]3)c2)ccc2[nH]ccc12` (stereo not drawn) [Example 262, 3-(3-((2-(3-((4-(Acetamidomethyl)-1H-indol-5-yl)oxy)phenyl)-1H-imidazol-5-yl)(hydroxy)methyl)phenyl)propanoic acid]: in the test with NBD1/3D, the “DSLS NBD1/3D Human Stability delta-T” value is recorded as “A (A: T ≥ 10° C.)”.

Turning to `Cc1c(Oc2ccc(F)c(-c3nc(Cc4csc(CCC(=O)O)n4)c[nH]3)c2)c(F)cc2[nH]ccc12` [Example 89, 3-(4-((2-(2-Fluoro-5-((6-fluoro-4-methyl-1H-indol-5-yl)oxy)phenyl)-1H-imidazol-4-yl)methyl)thiazol-2-yl)propanoic acid], the “DSLS NBD1/3D Human Stability delta-T” value in the test on NBD1/3D is recorded as “B (B: 5-10° C.)”. Regarding `O=C(O)CCc1cccc(C2(c3cnc(-c4cc(Oc5ccc6scnc6c5)ccc4F)[nH]3)CCOCC2)c1` [Example 166, 3-(3-(4-(2-(5-(Benzo[d]thiazol-5-yloxy)-2-fluorophenyl)-1H-imidazol-5-yl)tetrahydro-2H-pyran-4-yl)phenyl)propanoic acid], in the test with NBD1/3D, the “DSLS NBD1/3D Human Stability delta-T” value is given as “C (C: ≤5° C.)”. Consider `O=C(O)CCc1cccc(Cc2cnc(-c3cc(Oc4c(F)cc5[nH]ccc5c4Cl)ccc3F)[nH]2)c1` [Example 107, 3-(3-((2-(5-((4-chloro-6-fluoro-1H-indol-5-yl)oxy)-2-fluorophenyl)-1H-imidazol-5-yl)methyl)phenyl)propanoic acid], for which the “DSLS NBD1/3D Human Stability delta-T” value in the test on NBD1/3D was “B (B: 5-10° C.)”. Turning to `CNC(=O)c1c(Oc2cccc(-c3ccn(Cc4cccc(/C=C/C(=O)O)c4)n3)c2)ccc2[nH]ccc12` [Example 15, (E)-3-(3-((3-(3-((4-(Methylcarbamoyl)-1H-indol-5-yl)oxy)phenyl)-1H-pyrazol-1-yl)methyl)phenyl)acrylic acid], in the test with NBD1/3D, the “DSLS NBD1/3D Human Stability delta-T” value is listed as “B (B: 5-10° C.)”. Turning to `CC(c1cnc(-c2cc(Oc3c(F)cc4[nH]ccc4c3CCP(C)(C)=O)ccc2F)[nH]1)c1cccc(CCC(=O)O)c1F` (single isomer, unassigned) [Example 135B, 3-(3-(1-(2-(5-((4-(2-(dimethylphosphoryl)ethyl)-6-fluoro-1H-indol-5-yl)oxy)-2-fluorophenyl)-1H-imidazol-5-yl)ethyl)-2-fluorophenyl)propanoic acid], the “DSLS NBD1/3D Human Stability delta-T” value in the test on NBD1/3D was “C (C: ≤5° C.)”. Same read-out and setting: the entry for `CS(=O)(=O)c1c(Oc2ccc(F)c(-c3ncc(C4(c5cccc(CCC(=O)O)c5)CC(F)(F)C4)[nH]3)c2)c(F)cc2[nH]ccc12` [Example 78, 3-(3-(3,3-Difluoro-1-(2-(2-fluoro-5-((6-fluoro-4-(methylsulfonyl)-1H-indol-5-yl)oxy)phenyl)-1H-imidazol-5-yl)cyclobutyl)phenyl)propanoic acid] is “A (A: T ≥ 10° C.)”; for `O=C(O)CCc1cccc(Cc2cnc(-c3cccc(Oc4c(F)cc5[nH]ccc5c4-c4ccn[nH]4)c3)[nH]2)c1` [Example 271, 3-(3-((2-(3-((6-Fluoro-4-(1H-pyrazol-5-yl)-1H-indol-5-yl)oxy)phenyl)-1H-imidazol-4-yl)methyl)phenyl)propanoic acid] it is “B (B: 5-10° C.)”. Consider `Cc1c(Oc2ccc(F)c(-c3nc(C4(c5cccc(CCC(=O)O)c5)OCCCO4)c[nH]3)c2)c(F)cc2[nH]ccc12` [Example 231, 3-(3-(2-(2-(2-fluoro-5-((6-fluoro-4-methyl-1H-indol-5-yl)oxy)phenyl)-1H-imidazol-4-yl)-1,3-dioxan-2-yl)phenyl)propanoic acid], for which the “DSLS NBD1/3D Human Stability delta-T” value with NBD1/3D was “A (A: T ≥ 10° C.)”. Turning to `O=C(O)CCCCc1cccc(Cc2nnc(-c3cccc(Oc4cc5cc[nH]c5cn4)c3)[nH]2)c1` [Example 257, 5-(3-((5-(3-((1H-pyrrolo[2,3-c]pyridin-5-yl)oxy)phenyl)-4H-1,2,4-triazol-3-yl)methyl)phenyl)pentanoic acid], in the test on NBD1/3D, the “DSLS NBD1/3D Human Stability delta-T” value was “C (C: ≤5° C.)”.
